In BindingDB's records for doi:10.1021/acs.jnatprod.0c01036 (University of Illinois At Chicago, 2021):

Biological target: Kappa-type opioid receptor (Homo sapiens, UniProt P41145)
Test: Displacement of [3H]-U69593 from human kappa opioid receptor expressed in U2OS cells by radioligand binding assay

Chain of Kappa-type opioid receptor (P41145 whole entry): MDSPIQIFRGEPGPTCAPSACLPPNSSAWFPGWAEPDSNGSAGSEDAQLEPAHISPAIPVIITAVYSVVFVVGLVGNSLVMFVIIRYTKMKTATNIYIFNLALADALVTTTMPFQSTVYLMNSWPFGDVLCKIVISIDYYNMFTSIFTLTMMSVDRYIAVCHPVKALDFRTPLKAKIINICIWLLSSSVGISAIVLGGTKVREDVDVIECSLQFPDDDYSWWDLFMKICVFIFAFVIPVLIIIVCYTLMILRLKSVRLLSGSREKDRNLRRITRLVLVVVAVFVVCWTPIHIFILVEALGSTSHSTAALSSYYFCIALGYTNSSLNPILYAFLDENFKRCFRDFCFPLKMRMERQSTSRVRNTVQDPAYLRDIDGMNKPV

C/C=C1/CN2CC[C@@]34C(=Nc5ccccc53)C(C(=O)OC)[C@H]1C[C@H]24 (stereo partly specified)
Ki: 89 nM
